“And” between values parts separate entries of the source, which are not always exact repeats. Equal entries are not always repeated. Inconclusive results and toxic doses are left out.

The assay concerns P388 leukemia ip, CD2F1 mice, survival T/C. As to the kind of experiment: NCI In Vivo Anticancer Drug Screen. Data for tumor model P388 Leukemia (intraperitoneal) in CD2F1 (CDF1) mice. Particulars: endpoint: median survival time, higher = longer survival. The essentials:
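Mice carrying the transplanted tumor received test compound or vehicle. Survival was recorded in each group, and the value is the treated-group measurement divided by that of the vehicle-treated control group.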

Where [1] appears, read: dose: 60.0 mg/kg/injection, schedule: Q01DX005 (ip), vehicle: saline with Tween-80.
The mark [2] stands for this setting: dose: 120.0 mg/kg/injection, schedule: Q01DX005 (ip), vehicle: saline with Tween-80.
Where [3] appears, read: dose: 240.0 mg/kg/injection, schedule: Q01DX005 (ip), vehicle: saline with Tween-80.
[4] abbreviates: dose: 50.0 mg/kg/injection, schedule: Q01DX005 (ip), vehicle: Klucel (hydroxypropylcellulose) (HPC).
Setting [5] is: dose: 100.0 mg/kg/injection, schedule: Q01DX005 (ip), vehicle: Klucel (hydroxypropylcellulose) (HPC).
Setting [6] is: dose: 200.0 mg/kg/injection, schedule: Q01DX005 (ip), vehicle: Klucel (hydroxypropylcellulose) (HPC).
The mark [7] stands for this setting: dose: 50.0 mg/kg/injection, schedule: Q01DX005 (ip), vehicle: saline with Tween-80.
[8] abbreviates: dose: 100.0 mg/kg/injection, schedule: Q01DX005 (ip), vehicle: saline with Tween-80.
The mark [9] stands for this setting: dose: 50.0 mg/kg/injection, schedule: Q01DX009 (ip), vehicle: saline.
Where [10] appears, read: dose: 200.0 mg/kg/injection, schedule: Q01DX005 (ip), vehicle: saline with Tween-80.
The mark [11] stands for this setting: dose: 60.0 mg/kg/injection, schedule: Q01DX005 (ip), vehicle: Klucel (hydroxypropylcellulose) (HPC).
The mark [12] stands for this setting: dose: 240.0 mg/kg/injection, schedule: Q01DX005 (ip), vehicle: Klucel (hydroxypropylcellulose) (HPC).

Regarding `C[Si](CNCCN)(c1ccccc1)c1ccccc1`, the T/C (dose: 15.0 mg/kg/injection, schedule: Q01DX005 (ip), vehicle: saline with Tween-80) is 103 % of control; the T/C (dose: 30.0 mg/kg/injection, schedule: Q01DX005 (ip), vehicle: saline with Tween-80) is 102 % of control; the T/C under setting [1] is 96 % of control and 97 % of control.

For `O=C(CCCl)Nc1ccc(C(=O)CCc2cccc(NC(=O)CCCl)c2)cc1`, the T/C was 100 % of control under setting [1], 97 % of control under setting [2] and 89 % of control under setting [3].

Regarding `CCC(C)C(NC(=O)OC(C)(C)C)C(=O)O` (stereo unspecified), the T/C was 103 % of control under setting [4], 100 % of control under setting [5] and 100 % of control under setting [6].

On to `OCNC(=S)c1ccccc1`, for which the T/C was 105 % of control under setting [7] and 105 % of control under setting [8].

For `c1ccc2cc3cc(N=Nc4ccc5cc6ccccc6cc5c4)ccc3cc2c1`, the T/C is 108 % of control (dose: 100.0 mg/kg/injection, schedule: Q04DX002 (ip), vehicle: saline with Tween-80); 104 % of control (dose: 200.0 mg/kg/injection, schedule: Q04DX002 (ip), vehicle: saline with Tween-80); 106 % of control (dose: 400.0 mg/kg/injection, schedule: Q04DX002 (ip), vehicle: saline with Tween-80).

Turning to `CCOC(=O)c1ccc(NC(=O)Oc2cc(=O)oc3ccccc23)cc1`, the T/C is 91 % of control under setting [1], 94 % of control under setting [2] and 99 % of control under setting [3].

Turning to `Cc1cnc(Sc2c([N+](=O)[O-])ncn2C)nc1`, the T/C by setting is: under setting [9], 109 % of control; (dose: 100.0 mg/kg/injection, schedule: Q01DX009 (ip), vehicle: saline) 104 % of control; (dose: 200.0 mg/kg/injection, schedule: Q01DX009 (ip), vehicle: saline) 109 % of control.

For `O=C(NC1CCC(CC2CCC(NC(=O)C34CC5CC(CC(C5)C3)C4)CC2)CC1)C12CC3CC(CC(C3)C1)C2` (stereo unspecified), the T/C reads like this: (dose: 0.4 mg/kg/injection, schedule: Q01DX005 (ip), vehicle: saline with Tween-80) 97 % of control; (dose: 0.8 mg/kg/injection, schedule: Q01DX005 (ip), vehicle: saline with Tween-80) 98 % of control; (dose: 1.56 mg/kg/injection, schedule: Q01DX005 (ip), vehicle: saline with Tween-80) 91 % of control; (dose: 1.6 mg/kg/injection, schedule: Q01DX005 (ip), vehicle: saline with Tween-80) 97 % of control; (dose: 3.2 mg/kg/injection, schedule: Q01DX005 (ip), vehicle: saline with Tween-80) 87 % of control; (dose: 6.25 mg/kg/injection, schedule: Q01DX005 (ip), vehicle: saline with Tween-80) 89 % of control. Besides, the T/C under setting [10] is 86 % of control.

Regarding `C#CCOC(=O)c1ccccc1`, the T/C was 104 % of control (dose: 12.5 mg/kg/injection, schedule: Q01DX005 (ip), vehicle: saline with Tween-80); 89 % of control (dose: 25.0 mg/kg/injection, schedule: Q01DX005 (ip), vehicle: saline with Tween-80); 104 % of control and 95 % of control under setting [7].

Turning to `COC1OC(CO)C(O)C(O)C1NC(C)=O` (stereo unspecified), the T/C reads like this: under setting [7], 99 % of control; under setting [8], 100 % of control; under setting [10], 104 % of control.

On to `CCOC(=O)c1cnc2cc3c(cc2c1Nc1cccc(Cl)c1)OCO3`, for which the T/C is, setting by setting: under setting [11], 105 % of control; (dose: 120.0 mg/kg/injection, schedule: Q01DX005 (ip), vehicle: Klucel (hydroxypropylcellulose) (HPC)) 95 % of control; under setting [12], 108 % of control.

For the compound `CC(C)=CCCC(C)C1CCC2(CO2)C2CC=C(C)C2C1O` (stereo unspecified), the T/C was 102 % of control (dose: 20.0 mg/kg/injection, schedule: Q01DX009 (ip), vehicle: Klucel (hydroxypropylcellulose) (HPC)); 96 % of control (dose: 40.0 mg/kg/injection, schedule: Q01DX009 (ip), vehicle: Klucel (hydroxypropylcellulose) (HPC)); 102 % of control (dose: 80.0 mg/kg/injection, schedule: Q01DX009 (ip), vehicle: Klucel (hydroxypropylcellulose) (HPC)); 99 % of control (dose: 160.0 mg/kg/injection, schedule: Q01DX009 (ip), vehicle: Klucel (hydroxypropylcellulose) (HPC)).

Regarding `Cc1ccc(CSCC(NC(=O)OC(C)(C)C)C(=O)O)cc1` (stereo unspecified), the T/C runs as follows: under setting [4], 104 % of control; under setting [5], 97 % of control; under setting [6], 92 % of control.

In the case of `CCOC(=O)NC(Cc1cc(OC)c(OC)cc1Br)c1ccc(OC)c(OC)c1` (stereo unspecified), the T/C under setting [7] was 89 % of control, the T/C under setting [8] was 89 % of control and the T/C under setting [10] was 100 % of control.

Turning to `CCN(CC)CC.[CH-]1CCCCC1.[CH-]1CCCCC1.[CH3-].[Cl-].[I-].[Sn+4]`, the T/C (dose: 6.0 mg/kg/injection, schedule: Q01DX005 (ip), vehicle: saline with Tween-80) was 101 % of control and the T/C (dose: 12.0 mg/kg/injection, schedule: Q01DX005 (ip), vehicle: saline with Tween-80) was 102 % of control.

Turning to `CC(C)c1nc2c(c(=O)o1)CCS2`, the T/C reads like this: under setting [4], 100 % of control; under setting [5], 98 % of control; under setting [6], 98 % of control.

Regarding `O=P(C(=S)Nc1ccccc1Cl)(c1ccccc1)c1ccccc1`, the T/C runs as follows: (dose: 50.0 mg/kg/injection, schedule: Q01DX009 (ip), vehicle: Klucel (hydroxypropylcellulose) (HPC)) 100 % of control; (dose: 100.0 mg/kg/injection, schedule: Q01DX009 (ip), vehicle: Klucel (hydroxypropylcellulose) (HPC)) 91 % of control; (dose: 200.0 mg/kg/injection, schedule: Q01DX009 (ip), vehicle: Klucel (hydroxypropylcellulose) (HPC)) 90 % of control.

Regarding `O=c1[nH]c(=O)n(C2CC(O)C(CO)O2)cc1C(F)(F)F` (stereo unspecified), the T/C by setting is: (dose: 20.0 mg/kg/injection, schedule: Q01DX009 (ip), vehicle: saline with Tween-80) 111 % of control; (dose: 31.25 mg/kg/injection, schedule: Q01DX009 (ip), vehicle: Klucel (hydroxypropylcellulose) (HPC)) 120 % of control; (dose: 40.0 mg/kg/injection, schedule: Q01DX009 (ip), vehicle: saline with Tween-80) 117 % of control; (dose: 62.5 mg/kg/injection, schedule: Q01DX009 (ip), vehicle: Klucel (hydroxypropylcellulose) (HPC)) 151 % of control; (dose: 80.0 mg/kg/injection, schedule: Q01DX009 (ip), vehicle: saline with Tween-80) 119 % of control; (dose: 125.0 mg/kg/injection, schedule: Q01DX005 (ip), vehicle: Klucel (hydroxypropylcellulose) (HPC)) 152 % of control. Also, the T/C by setting is: (dose: 125.0 mg/kg/injection, schedule: Q01DX009 (ip), vehicle: Klucel (hydroxypropylcellulose) (HPC)) 178 % of control and 183 % of control; (dose: 160.0 mg/kg/injection, schedule: Q01DX009 (ip), vehicle: saline with Tween-80) 111 % of control; (dose: 250.0 mg/kg/injection, schedule: Q01DX005 (ip), vehicle: Klucel (hydroxypropylcellulose) (HPC)) 161 % of control; (dose: 250.0 mg/kg/injection, schedule: Q01DX009 (ip), vehicle: Klucel (hydroxypropylcellulose) (HPC)) 176 % of control; (dose: 320.0 mg/kg/injection, schedule: Q01DX009 (ip), vehicle: saline with Tween-80) 102 % of control; (dose: 500.0 mg/kg/injection, schedule: Q01DX005 (ip), vehicle: Klucel (hydroxypropylcellulose) (HPC)) 151 % of control. Also, the T/C by setting is: (dose: 500.0 mg/kg/injection, schedule: Q01DX009 (ip), vehicle: Klucel (hydroxypropylcellulose) (HPC)) 100 % of control and 104 % of control; (dose: 640.0 mg/kg/injection, schedule: Q01DX009 (ip), vehicle: saline with Tween-80) 88 % of control.

On to `[O-]c1c(Cl)c(Cl)c(O[P+](c2ccccc2)(c2ccccc2)c2ccccc2)c(Cl)c1Cl`, for which the T/C is, setting by setting: (dose: 6.25 mg/kg/injection, schedule: Q01DX009 (ip), vehicle: saline) 108 % of control and 96 % of control; (dose: 12.5 mg/kg/injection, schedule: Q01DX009 (ip), vehicle: saline) 113 % of control and 97 % of control; (dose: 25.0 mg/kg/injection, schedule: Q01DX009 (ip), vehicle: saline) 108 % of control and 114 % of control and 92 % of control; under setting [9], 113 % of control.

Regarding `COCN1C(=O)N2C(c3ccccc3)(c3ccccc3)C(C(=O)OC)=C(C(=O)OC)P12(c1ccccc1)c1ccccc1`, the T/C is, setting by setting: (dose: 15.0 mg/kg/injection, schedule: Q01DX005 (ip), vehicle: Klucel (hydroxypropylcellulose) (HPC)) 107 % of control; (dose: 30.0 mg/kg/injection, schedule: Q01DX005 (ip), vehicle: Klucel (hydroxypropylcellulose) (HPC)) 99 % of control; under setting [11], 91 % of control and 97 % of control; under setting [12], 87 % of control.
